# Assay results from patent publication US20060278218A1, “Non-invasive restrained whole body plethysmography for measurement of airway function in conscious mice” (priority 2005, published 2006).
# Values joined by “and” are separate entries in the source; they are usually repeats but may differ in a detail not shown here. Identical values can stand only once. Marks after values point to notes of the source that are not given here.
# Experiments:
# Assay type in all cases: in vivo, mouse
# conscious mice [1] = test: Methacholine aerosol challenge in conscious mice, double chamber plethysmography (DCP); conditions: BALBc (pre-OVA) mice, n=8; provocative concentration increasing sRaw to 175% post-saline value; mean
# Experimental: The double chamber plethysmograph was purchased from a commercial source (PLY3351, Buxco Electronics Inc, Wilmington, N.C.). The techniques for measurement with this technique have been described previously (DeLorme, et al. and Flandre, et al.). The flow for each chamber (nasal and thoracic) of the DCP was calibrated separately by rapid injection of a known volume (0.5 mL) into the chamber; volume was matched by the integration of flow. The accuracy of calibration was checked before each test. The phase lag between the chambers was negligible (<0.01 msec up to 10 Hz). For DCP, mice were loaded into the rear of the thoracic chamber and pushed forward until the head protruded through a hole in a latex neck seal provided with the equipment. […] Computation of sRaw measured with DCP (hereinafter sRaw-DCP) followed protocols established by Pennock, et al. and later applied to mice by Flandre, et al, whereby the time lag (dT) between the thoracic and nasal flow at zero crossing (during transition between inspiration and expiration) was utilized as follows: sRaw−DCP=(Ti+Te)/(2π)×(Patm−47)×1.36 2×π×dT/(Ti+Te), Equation 2: where Ti and Te equal inspiratory and expiratory time (sec) and Patm atmospheric pressure (cm H2O). The peak dT was identified and 10 sequential breaths free from movement artifacts were measured for that period. […]
# [2] = test system: anesthetized, tracheotomized mice; test: Methacholine challenge in anesthetized mice using forced oscillation technique (FOT); conditions: for Raw ED175: provocative concentration increasing Raw-FOT to 175% baseline, mean
# Experimental: The methods for FOT have been previously described in Tomioka, S., J. H. Bates, et al. (2002). “Airway and tissue mechanics in a murine model of asthma: alveolar capsule vs. forced oscillations.” J Appl Physiol 93(1): 263-70. (hereinafter Tomioka, et al.), incorporated herein by reference. Mice were anesthetized with ketamine (50 mg/kg) and xylazine (5 mg/kg) (Butler Co, Dublin, Ohio) intra-peritoneally, and a tracheostomy performed with a 19 g cannula (Becton Dickinson and Company Franklin Lakes, N.Y.). Mice were paralyzed with pancuronium (1 mg/ml, Baxter Healthcare Corp. Irvine, Calif.). Supplemental xylazine and ketamine (½ doses) were provided every ½ hour. Ventilation was set at frequency of 200 BPM, VT 0.3 ml, positive end-expiratory pressure (PEEP) 3.0 cm H20, and oxygen was supplemented throughout. Repeated measurements were performed with a commercial data acquisition system for input impedance between 1-20 Hz (Quick Prime 3 analyzer, FlexiVent System, SCIREQ Corp, Montreal, Quebec). A constant phase model (Gomes, R. F., X. Shen, et al. (2000). “Comparative respiratory system mechanics in rodents.” J Appl Physiol 89(3): 908-16 (hereinafter Gomes, et al.)., incorporated herein by reference) was employed to obtain airway resistance Raw, tissue resistance coefficient Gti, and tissue elastance coefficient Hti.
# Aerosols were delivered directly into the tracheal cannula during lung inflation during mechanical ventilation (flexiVent, Scireq Corp, Montreal, Quebec). Ten second nebulization periods were used, followed immediately by a series (8-15) of measurements. Prior to each measurement of lung mechanics, the lung was inflated to total lung capacity (TLC) (30 cm H2O airway pressure). Forced oscillations during apnea (3 seconds in duration) were applied every 17 seconds for 5 minutes. Dosage ranges were pre-determined in pilot studies to evoke between 10 and >75% increase in airway resistance (Raw). Methacholine in C57 mice was delivered at 0 (saline), 4, 8, and 16 mg/mL, and in AJ we used 0, 2, 4, and 8 mg/mL. The concentration of methacholine that provoked an increase in Raw-FOT to 175% baseline (ED 175) was determined by log-linear interpolation as described above.
# conscious mice [3] = test: Methacholine aerosol challenge in conscious mice, restrained whole body plethysmography (RWBP); conditions: for sRaw-RWBP ED175: mean; for average sRaw: one C57BL/6 mouse
# From the text: The dynamic properties of the plethysmograph were studied by varying pressures in the chamber (John, J., B. Drefeldt, et al. (1994). “Dynamic properties of body plethysmographs and effects on physiological parameters.” J Appl Physiol 77(1): 152-9. (hereinafter John, et al.), incorporated herein by reference). A leak (3.2 sec to 36% peak pressure) was created by a Luer connector mounted in the wall of the box, which was attached to a length of tubing, a stopcock and needle (22 g, 2 cm). The leak resistance was measured to be 5.37 cm H2O/L/sec and inertance 0.029 s^2/mL. A step pressure created by (a) hammering gently the plunger of a syringe loaded to an expected volume (0.02 mL), and (b) balloon burst both peaked between 19-21 msec, with a thermal time constant (described by a single compartment) of 0.95 sec. Amplitude was examined as a function of input frequency using digitally controlled square and sinusoidal flows delivered with a piston-driven mouse ventilator (flexiVent, Scireq Corp, Montreal, Canada). Box pressure amplitude remained within 3% of the delivered volume (0.1 mL) from 1-10 Hz, and within 0.075% between 2 and 5 Hz, the range most relevant to breathing in conscious mice. Therefore the conditions were adiabatic across these frequencies. Time shifts between flow, delivered via the pneumotachograph within the box, and peak box pressure averaged less than 3 msec (range 1-6 msec) from 0.5-20 Hz generated using a broadband input generator (flexiVent, Scireq Corp). Pressure in the plethysmographic chamber was sampled differential pressure transducer 20 (TRD 5700, Buxco Electronics, Wilmington, N.C.) referenced to the atmospheric reference chamber 18 The pneumotachograph 52 (8431 Series, Hans Rudolph, Kansas City, Mo.) heated to 38-39° C. measured flow and flow-derived parameters. Data was sampled at 2500 Hz per channel using commercial hardware (Max1420 Buxco Electronics, PCI 6024E, National Instruments) and software (Biosystem XA version 2.9.4, Buxco Electronics, Inc). The pneumotachograph was calibrated by integration of the flow, injected as a known volume (0.5 mL). Box volume was calibrated by rapid injection of a known volume (0.1 mL) into the chamber between each mouse, and checked repeatedly using injections of varying volumes and quasi-sinusoidal inputs. Bias flow (0.5 L/min) was employed between recordings, and the box vented fully between methacholine challenges.
# FIGS. 9A-9D are box volume-flow plots for the experiments performed using an RWBP according to the invention. Primary waveforms (box volume, flow) are reviewed and period of peak responses based on EF50 are identified. These occurred regularly between 1.5-2.5 minutes after exposure to methacholine. FIGS. 9A-9D have a stripchart for pneumotachograph flow and plethysmographic volume. Below the stripcharts are corresponding X-Y plots of flow (Y-axis) and box volume shift (X-axis). A slope (θ) of the box volume-flow plot was measured using a protractor (accurate to 0.5 degrees) on the straightest possible segment between −1 to 1 mL/sec. Angles are measured at the transition from expiration to inspiration to minimize the contribution of heating and humidification to the box volume signal (see Agrawal K P). Gains were set to produce angles (tangents) between 40 and 75 degrees. Breaths with evidence of laryngeal braking are avoided. Specific airway resistance (sRaw) is computed from the plots as follows: sRaw=(1/tan θ)*(Patm−PH2O)*Cf*(Vbox−bwt mouse)/Vbox, Equation 1: where Patm is atmospheric pressure, PH2O is water vapor pressure, Cf is a scaling factor for X and Y axes, Vbox is volume of the outer chamber, and bwt mouse is the weight of the mouse in units of grams.
# Challenges were conducted at the same time of day (morning or afternoon) for each mouse. Ambient temperatures in the laboratory ranged from 21-23° C. and humidity ranged from 25-45%. Baseline recordings were obtained after 2 min acclimation to the chamber. […]
smiles,measurement,setting,value
CC(=O)OC(C)C[N+](C)(C)C (centres unmarked) [methacholine],sRaw-DCP ED175,conscious mice [1],7.1^a mg/mL
same,Raw ED175,"[2]; AJ mice, n=18",2.3^a mg/mL
same,Raw ED175,[2]; BALBc (pre-OVA) mice,9.48 mg/mL
same,Raw ED175,"[2]; C57 mice, n=18",8.3 mg/mL
same,change in Raw,"[2]; anesthetized, tracheotomized C57, AJ and BALBc mice, all 3 strains (FIG. 11)",dose-dependent increase
same,sRaw-RWBP ED175,"conscious mice [3]; AJ mice, n=18, provocative concentration increasing sRaw to 175% post-saline value","4.49^a,b mg/mL"
same,sRaw-RWBP ED175,"conscious mice [3]; BALBc (no OVA) mice, n=18, provocative concentration increasing sRaw to 175% post-saline value",10.9^a mg/mL
same,sRaw-RWBP ED175,"conscious mice [3]; BALBc (post-OVA) mice, n=8, 48 hrs following allergen challenge in sensitized group","5.0 mg/mL and 5.0^a,c mg/mL"
same,sRaw-RWBP ED175,"conscious mice [3]; BALBc (pre-OVA) mice, n=8, prior to sensitization and aerosol exposure to ovalbumin",9.2 mg/mL and 9.2^ mg/mL
same,sRaw-RWBP ED175,"conscious mice [3]; C57 mice, n=18, provocative concentration increasing sRaw to 175% post-saline value",40.5^b mg/mL
same,change in tidal volume,"conscious mice [3]; conscious C57, AJ and BALBc mice, any strain (FIG. 10C)",no change
same,change in sRaw-RWBP,"conscious mice [3]; conscious C57, AJ and BALBc mice, dose response (FIG. 10A)",significant dose-dependent increase
same,change in respiratory frequency,"conscious mice [3]; conscious C57, AJ and BALBc mice, dose response (FIG. 10B)",significant decrease
same,average sRaw,conscious mice [3]; methacholine aerosol dose 10 mg/mL (FIG. 9B),0.75 cm·s
same,average sRaw,conscious mice [3]; methacholine aerosol dose 50 mg/mL (FIG. 9C),0.86 cm·s
same,average sRaw,conscious mice [3]; methacholine aerosol dose 100 mg/mL (FIG. 9D),1.61 cm·s
same,period of peak responses based on EF50 after exposure,conscious mice [3]; time after exposure to methacholine,1.5 to 2.5 min
